# Experiments:
# [1] = target: cGMP-inhibited 3',5'-cyclic phosphodiesterase 3A (Homo sapiens, UniProt Q14432); assay: Selectivity interaction (Safety Panel 44tm (Eurofins)) EUB0000162b PDE3A; settings: at 10 µM
# [2] = target: Mitogen-activated protein kinase kinase kinase 11 (Homo sapiens) (UniProt Q16584); assay: Selectivity interaction (Kinase panel (literature)) EUB0001199aCl MAP3K11; settings: at 1 µM
# [3] = target: T1, Dual specificity mitogen-activated protein kinase kinase 4 (Homo sapiens) (UniProt P45985); assay: Selectivity interaction (Kinase panel (DSF assay)) EUB0001558a MAP2K4
# T1 sequence (whole entry): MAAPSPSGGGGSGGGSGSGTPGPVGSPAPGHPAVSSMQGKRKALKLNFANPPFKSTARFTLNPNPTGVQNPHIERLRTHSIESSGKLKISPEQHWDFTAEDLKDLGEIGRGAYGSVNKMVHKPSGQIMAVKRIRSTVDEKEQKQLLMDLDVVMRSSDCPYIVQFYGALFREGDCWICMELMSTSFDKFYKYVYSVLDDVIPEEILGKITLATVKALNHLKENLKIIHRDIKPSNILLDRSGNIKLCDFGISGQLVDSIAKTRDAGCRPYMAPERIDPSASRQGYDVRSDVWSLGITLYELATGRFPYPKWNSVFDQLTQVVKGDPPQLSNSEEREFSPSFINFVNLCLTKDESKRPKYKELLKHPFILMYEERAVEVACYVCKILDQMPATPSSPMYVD
# [4] = target: T2, Myosin-IIIb (Homo sapiens) (UniProt Q8WXR4); assay: Selectivity interaction (KinomeScan (DiscoverX)) EUB0000618a MYO3B; settings: at 10 µM
# T2 sequence (whole entry): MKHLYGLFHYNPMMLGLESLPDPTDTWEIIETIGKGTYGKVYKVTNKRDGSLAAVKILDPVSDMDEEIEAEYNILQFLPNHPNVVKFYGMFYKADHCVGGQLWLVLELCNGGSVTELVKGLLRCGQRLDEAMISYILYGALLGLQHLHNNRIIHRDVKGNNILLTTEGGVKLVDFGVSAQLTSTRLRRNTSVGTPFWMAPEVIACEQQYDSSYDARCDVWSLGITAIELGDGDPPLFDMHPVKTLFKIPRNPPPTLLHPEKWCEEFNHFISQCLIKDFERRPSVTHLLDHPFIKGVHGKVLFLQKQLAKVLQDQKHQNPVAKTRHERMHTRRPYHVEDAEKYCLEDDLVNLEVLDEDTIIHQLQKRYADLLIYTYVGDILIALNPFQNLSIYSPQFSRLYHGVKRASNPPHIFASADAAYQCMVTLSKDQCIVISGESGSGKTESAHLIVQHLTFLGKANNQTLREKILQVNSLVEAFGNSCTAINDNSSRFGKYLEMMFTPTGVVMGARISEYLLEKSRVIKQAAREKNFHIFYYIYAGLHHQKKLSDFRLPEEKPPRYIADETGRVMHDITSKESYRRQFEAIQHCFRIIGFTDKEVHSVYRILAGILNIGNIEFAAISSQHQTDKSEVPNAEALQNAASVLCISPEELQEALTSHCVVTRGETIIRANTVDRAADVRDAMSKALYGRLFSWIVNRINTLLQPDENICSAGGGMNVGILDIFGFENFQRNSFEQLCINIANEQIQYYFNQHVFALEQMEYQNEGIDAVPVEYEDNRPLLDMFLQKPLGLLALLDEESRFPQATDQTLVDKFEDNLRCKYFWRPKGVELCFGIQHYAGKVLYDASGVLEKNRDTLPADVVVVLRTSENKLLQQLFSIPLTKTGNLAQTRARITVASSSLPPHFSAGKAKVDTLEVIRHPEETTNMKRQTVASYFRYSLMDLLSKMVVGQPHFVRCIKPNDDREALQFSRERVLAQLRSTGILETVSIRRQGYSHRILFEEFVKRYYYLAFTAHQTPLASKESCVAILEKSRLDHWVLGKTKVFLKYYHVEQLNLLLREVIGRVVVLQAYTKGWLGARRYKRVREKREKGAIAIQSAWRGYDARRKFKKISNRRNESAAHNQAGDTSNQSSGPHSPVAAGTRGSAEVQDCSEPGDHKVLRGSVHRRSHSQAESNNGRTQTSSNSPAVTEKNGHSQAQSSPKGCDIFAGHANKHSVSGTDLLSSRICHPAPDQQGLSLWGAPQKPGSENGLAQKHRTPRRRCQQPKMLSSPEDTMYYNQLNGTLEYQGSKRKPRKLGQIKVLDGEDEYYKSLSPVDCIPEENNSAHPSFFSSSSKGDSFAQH
# [5] = target: Casein kinase I isoform epsilon (Homo sapiens, UniProt P49674); assay: Selectivity interaction (Kinase panel (Invitrogen)) EUB0000639a CSNK1E; settings: at 200 nM
# [6] = system: eIF-2-alpha kinase GCN2 (Homo sapiens), Q9P2K8 [S808G]; settings: at 10 µM
# [7] = system: Tyrosine-protein kinase ABL1 (Homo sapiens), P00519 [T315I]; assay: Selectivity interaction (Ambit KINOMEscan and KiNATiv profiling in Jurkat cells) EUB0000090b ABL1; assay type: cell-based; settings: at 1 µM
# Casein kinase I isoform epsilon, sequence (P49674 whole entry, looked up, canonical isoform): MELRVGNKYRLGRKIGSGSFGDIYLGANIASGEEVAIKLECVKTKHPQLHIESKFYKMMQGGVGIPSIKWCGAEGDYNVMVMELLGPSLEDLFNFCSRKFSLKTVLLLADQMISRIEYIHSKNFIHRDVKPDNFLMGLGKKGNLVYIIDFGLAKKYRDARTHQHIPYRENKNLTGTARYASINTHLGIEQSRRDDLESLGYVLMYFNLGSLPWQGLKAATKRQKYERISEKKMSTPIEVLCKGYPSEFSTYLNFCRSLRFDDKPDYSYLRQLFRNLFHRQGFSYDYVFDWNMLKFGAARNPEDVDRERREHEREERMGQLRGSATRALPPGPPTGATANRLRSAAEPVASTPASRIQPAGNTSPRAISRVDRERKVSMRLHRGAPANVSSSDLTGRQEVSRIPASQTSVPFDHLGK
# cGMP-inhibited 3',5'-cyclic phosphodiesterase 3A, sequence (Q14432 whole entry): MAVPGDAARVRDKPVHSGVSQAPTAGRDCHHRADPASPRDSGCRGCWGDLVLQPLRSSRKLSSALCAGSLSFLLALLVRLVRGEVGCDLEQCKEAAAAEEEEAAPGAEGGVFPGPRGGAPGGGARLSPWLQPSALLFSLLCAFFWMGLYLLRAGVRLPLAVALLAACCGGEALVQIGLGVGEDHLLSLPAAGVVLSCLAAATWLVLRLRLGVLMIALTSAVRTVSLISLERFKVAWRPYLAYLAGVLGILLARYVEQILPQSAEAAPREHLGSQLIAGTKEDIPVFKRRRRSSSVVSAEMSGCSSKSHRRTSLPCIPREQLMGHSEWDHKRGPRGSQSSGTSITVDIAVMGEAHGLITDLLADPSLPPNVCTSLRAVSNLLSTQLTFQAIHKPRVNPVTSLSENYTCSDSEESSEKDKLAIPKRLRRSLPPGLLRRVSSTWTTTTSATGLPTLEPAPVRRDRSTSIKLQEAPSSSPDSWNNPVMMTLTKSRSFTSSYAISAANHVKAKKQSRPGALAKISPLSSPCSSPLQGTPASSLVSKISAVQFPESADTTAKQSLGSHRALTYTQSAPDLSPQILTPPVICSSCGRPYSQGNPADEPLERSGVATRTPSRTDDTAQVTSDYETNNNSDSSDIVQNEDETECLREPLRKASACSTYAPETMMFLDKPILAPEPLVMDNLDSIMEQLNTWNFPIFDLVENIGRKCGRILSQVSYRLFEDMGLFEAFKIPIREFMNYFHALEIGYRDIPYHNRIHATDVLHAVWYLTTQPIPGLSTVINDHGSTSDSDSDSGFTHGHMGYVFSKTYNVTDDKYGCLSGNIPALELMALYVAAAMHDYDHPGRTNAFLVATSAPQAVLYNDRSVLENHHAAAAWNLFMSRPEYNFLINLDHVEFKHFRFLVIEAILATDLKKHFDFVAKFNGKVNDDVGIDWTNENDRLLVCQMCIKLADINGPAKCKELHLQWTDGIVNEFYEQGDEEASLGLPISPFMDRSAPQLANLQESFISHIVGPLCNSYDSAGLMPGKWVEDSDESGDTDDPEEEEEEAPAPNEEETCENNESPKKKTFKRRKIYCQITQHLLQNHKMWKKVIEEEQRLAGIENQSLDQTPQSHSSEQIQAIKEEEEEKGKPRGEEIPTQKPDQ
# Mitogen-activated protein kinase kinase kinase 11 (Homo sapiens), sequence (Q16584 whole entry, looked up): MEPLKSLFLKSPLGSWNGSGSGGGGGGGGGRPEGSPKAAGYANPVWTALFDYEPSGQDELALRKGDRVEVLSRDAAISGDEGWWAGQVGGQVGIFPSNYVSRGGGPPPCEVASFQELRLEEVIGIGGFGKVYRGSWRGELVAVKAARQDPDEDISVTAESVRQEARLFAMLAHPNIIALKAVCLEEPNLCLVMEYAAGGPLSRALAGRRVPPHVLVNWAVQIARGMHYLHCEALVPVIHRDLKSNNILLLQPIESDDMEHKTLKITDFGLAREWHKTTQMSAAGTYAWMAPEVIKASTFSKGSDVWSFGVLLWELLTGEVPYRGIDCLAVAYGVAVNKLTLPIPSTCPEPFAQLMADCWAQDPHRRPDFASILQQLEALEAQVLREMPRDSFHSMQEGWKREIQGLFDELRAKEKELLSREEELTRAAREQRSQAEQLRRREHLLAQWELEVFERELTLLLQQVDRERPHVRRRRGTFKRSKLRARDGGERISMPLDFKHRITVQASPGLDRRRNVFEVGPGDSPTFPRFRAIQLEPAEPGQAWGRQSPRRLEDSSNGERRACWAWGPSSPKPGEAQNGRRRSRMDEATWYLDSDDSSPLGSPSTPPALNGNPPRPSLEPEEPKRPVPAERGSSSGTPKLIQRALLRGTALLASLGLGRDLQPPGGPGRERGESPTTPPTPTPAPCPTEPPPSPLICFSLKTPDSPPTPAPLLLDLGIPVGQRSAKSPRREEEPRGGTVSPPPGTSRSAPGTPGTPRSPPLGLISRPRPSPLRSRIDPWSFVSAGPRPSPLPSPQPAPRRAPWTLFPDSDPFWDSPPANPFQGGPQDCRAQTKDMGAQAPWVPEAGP
# eIF-2-alpha kinase GCN2 (Homo sapiens), Q9P2K8 [S808G], sequence (Q9P2K8 whole entry S808G): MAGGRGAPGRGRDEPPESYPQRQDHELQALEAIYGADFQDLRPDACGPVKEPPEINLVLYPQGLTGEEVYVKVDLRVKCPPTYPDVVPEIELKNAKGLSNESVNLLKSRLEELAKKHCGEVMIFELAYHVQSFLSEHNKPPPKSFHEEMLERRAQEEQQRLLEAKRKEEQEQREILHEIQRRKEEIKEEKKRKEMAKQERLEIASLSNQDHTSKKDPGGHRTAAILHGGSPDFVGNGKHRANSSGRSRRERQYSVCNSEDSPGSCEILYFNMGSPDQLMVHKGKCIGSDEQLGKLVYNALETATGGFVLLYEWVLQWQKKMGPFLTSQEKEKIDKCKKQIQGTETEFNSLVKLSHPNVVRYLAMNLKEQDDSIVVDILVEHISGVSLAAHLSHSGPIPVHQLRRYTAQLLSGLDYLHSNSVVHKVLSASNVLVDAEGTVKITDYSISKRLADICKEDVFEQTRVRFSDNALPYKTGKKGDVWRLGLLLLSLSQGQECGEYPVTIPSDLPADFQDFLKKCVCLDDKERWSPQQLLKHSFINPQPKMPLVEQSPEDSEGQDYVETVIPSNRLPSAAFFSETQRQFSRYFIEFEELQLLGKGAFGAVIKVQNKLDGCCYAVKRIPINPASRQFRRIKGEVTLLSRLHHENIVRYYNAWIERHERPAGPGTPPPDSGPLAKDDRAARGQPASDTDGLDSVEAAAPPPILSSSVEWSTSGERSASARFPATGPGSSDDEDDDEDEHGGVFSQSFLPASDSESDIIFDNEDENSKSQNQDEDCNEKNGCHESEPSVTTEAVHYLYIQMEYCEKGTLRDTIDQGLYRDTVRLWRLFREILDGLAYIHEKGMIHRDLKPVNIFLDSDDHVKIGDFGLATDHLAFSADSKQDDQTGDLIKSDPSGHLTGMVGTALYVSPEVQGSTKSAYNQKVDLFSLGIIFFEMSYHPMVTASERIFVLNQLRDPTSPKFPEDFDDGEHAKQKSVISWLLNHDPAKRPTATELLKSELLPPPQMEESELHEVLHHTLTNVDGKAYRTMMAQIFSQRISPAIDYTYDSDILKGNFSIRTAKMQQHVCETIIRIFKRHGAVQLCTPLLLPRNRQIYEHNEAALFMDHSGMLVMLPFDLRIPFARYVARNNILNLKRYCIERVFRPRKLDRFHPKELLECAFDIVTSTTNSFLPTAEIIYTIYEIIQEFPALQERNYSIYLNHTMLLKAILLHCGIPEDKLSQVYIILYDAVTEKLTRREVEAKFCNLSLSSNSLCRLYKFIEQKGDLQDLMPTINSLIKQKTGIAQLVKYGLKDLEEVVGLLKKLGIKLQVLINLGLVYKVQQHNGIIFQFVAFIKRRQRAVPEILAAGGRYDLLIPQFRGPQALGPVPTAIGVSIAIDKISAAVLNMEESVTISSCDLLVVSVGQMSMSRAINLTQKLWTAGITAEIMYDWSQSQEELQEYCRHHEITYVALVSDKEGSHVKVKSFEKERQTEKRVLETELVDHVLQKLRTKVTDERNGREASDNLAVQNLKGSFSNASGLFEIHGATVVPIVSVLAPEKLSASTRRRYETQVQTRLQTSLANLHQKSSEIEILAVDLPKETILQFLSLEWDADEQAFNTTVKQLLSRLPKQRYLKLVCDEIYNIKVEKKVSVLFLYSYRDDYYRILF
compound,measurement,setting,value
CN(C)C(=O)Cn1cc(-c2ccc(-c3cncc4ccccc34)cc2)cn1,% of control,[1],82%
CN1Cc2nccc(-c3cn(C)nc3-c3ccc(F)cc3)c2C1=O,% of inhibition,[2],3%
CC(C)(O)[C@H](F)CN1Cc2cc(NC(=O)c3cnn4cccnc34)c(N3CCOCC3)cc2C1=O,dTM,[3],0.9 K
O[C@H]1CC[C@H](Nc2ncc3nc(Nc4c(F)cc(F)cc4F)n([C@H]4CCOC4)c3n2)CC1,% of control,[4],95%
CC[C@@H]1[C@H](F)C(=O)N[C@@H]1COc1nccc2cc(C(N)=O)c(OC)cc12 [ZIMLOVISERTIB],% of inhibition,[5],42.3%
CCN(CC)CCCCNc1ncc2cc(-c3cc(OC)cc(OC)c3)c(NC(=O)NC(C)(C)C)nc2n1,% of control,[6],100%
CN(C)C/C=C/C(=O)Nc1ccc(C(=O)N2CCCC(Nc3ncc(Cl)c(-c4c[nH]c5ccccc45)n3)C2)cc1 (configuration not stated),% of control,[7],100%

# From ChEMBL document CHEMBL5465560, “Selectivity Literature for EUbOPEN Chemogenomic Library” (2024)
